# Laboratory results published in patent US20200024278A1, “COMPOSITION COMPRISING ANTIBIOTIC COMPOUND AND AN HETEROCYCLIC COMPOUND AND THEIR USE IN PREVENTING OR TREATING BACTERIAL INFECTIONS” (MUTABILIS, priority 2016, published 2020).
# Legend:
# Assay in all cases: MIC, broth microdilution (CLSI), substance alone or ATB combined with compound at 4 or 8 μg/mL
# [1] = test system: ECO 190317; format: cell-based, E. coli; details: Escherichia coli; substance alone; ECO 190317; read-out: MIC
# Procedure, shortened: (§1)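 Broth microdilution; ca-MHB; 5·10^5 CFU/mL; 35° C, 16-20 h; compound alone or fixed 4/8 μg/mL with antibiotic series; endpoint = no visible growth.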
# [2] = test system: ECO UFR39; format: cell-based, E. coli; details: Escherichia coli; substance alone; ECO UFR39; read-out: MIC
# Procedure, shortened: as §1
# [3] = test system: ECL P99; format: cell-based, E. cloacae; details: Enterobacter cloacae; substance alone; ECL P99; read-out: MIC
# Procedure, shortened: as §1
# [4] = test system: ABA UFR154; format: cell-based, A. baumannii; details: Acinetobacter baumannii, substance alone, read-out: MIC
# Procedure: (§2) Compounds of the present invention were assessed against genotyped bacterial strains alone or in combination with an antibacterial. In the assays, MICs of said compounds or combination of antibiotics with fixed concentrations of said compounds (4 or 8 μg/mL) were determined by the broth microdilution method according to the Clinical Laboratory Standards Institute (CLSI-M7-A7). Briefly, compounds alone according to the invention were prepared in DMSO and spotted (2 μL each) on sterile polystyrene plates (Corning, 3788). Combinations of compounds and antibiotics dilutions were prepared in DMSO and spotted (1 μL each) on sterile polystyrene plates (Corning, 3788). Log phase bacterial suspensions were adjusted to a final density of 5·10^5 CFU/mL in cation-adjusted Mueller-Hinton broth (ca-MHB; Becton-Dickinson and Company) and added to each well (98 μL). Assays including Fosfomycin were supplemented with 25 μg/ml of Glucose-6-phosphate. Microplates were incubated for 16-20 h at 35° C. in ambient air. The MIC of the compounds was defined as the lowest concentration of said compounds that prevented bacterial growth as read by visual inspection. The MIC of ATB at each compound concentration was defined as the lowest concentration of ATB that prevented bacterial growth as read by visual inspection.
# [5] = test system: ABA UFR152; format: cell-based, A. baumannii; details: Acinetobacter baumannii, substance alone, read-out: MIC
# Procedure: as §2
# [6] = test system: SAU 29213; format: cell-based, S. aureus; details: for MIC ATB combined with compound: compound @4 μg/ml, SAU 29213
# Procedure, shortened: as §1
# [7] = test system: PAE UFR90; format: cell-based, P. aeruginosa; details: PAE UFR90; for MIC ATB combined with compound: compound @4 μg/ml
# Procedure, shortened: as §1
# [8] = test system: PAE UFR48; format: cell-based, P. aeruginosa; details: PAE UFR48; for MIC ATB combined with compound: compound @4 μg/ml
# Procedure, shortened: as §1
# [9] = test system: PAE 105250; format: cell-based, P. aeruginosa; details: PAE 105250; for MIC ATB combined with compound: compound @4 μg/ml
# Procedure, shortened: as §1
# [10] = test system: SPN 49619; format: cell-based, S. pneumoniae; details: SPN 49619; for MIC ATB combined with compound: compound @4 μg/ml
# Procedure, shortened: as §1
# [11] = test system: KPN BAA-1898; format: cell-based, K. pneumoniae; details: Klebsiella pneumoniae, BAA1898; substance alone; KPN BAA-1898; read-out: MIC
# Procedure, shortened: as §1
# [12] = test system: KPN UFR42; format: cell-based, K. pneumoniae; details: Klebsiella pneumoniae; substance alone; KPN UFR42; read-out: MIC
# Procedure, shortened: as §1
# [13] = Pseudomonas aeruginosa, substance alone, read-out: MIC
smiles,measurement,setting,value
"NCCON=C1C[C@@H](C(N)=O)N2C[C@@H]1N(OS(=O)(=O)[O-])C2=O.[Na+] [Example 2, sodium and 2,2,2-trifluoroacetate [(2S,5S)-4-(2-ammonium-ethoxyimino)-2-carbamoyl-7-oxo-1,6-diazabicyclo[3.2.1]octan-6-yl] sulfate]",MIC,[1],4 µg/mL
same,MIC,[2],4 µg/mL
same,MIC,[3],16 µg/mL
same,MIC,[4],> 32 µg/mL
same,MIC,[5],> 32 µg/mL
same,MIC ATB combined with compound,[6]; ATB ATM,>32 µg/mL
same,MIC ATB combined with compound,[6]; ATB FEP,4 µg/mL
same,MIC ATB combined with compound,[6]; ATB FOS,0.5 µg/mL
same,MIC ATB combined with compound,[6]; ATB MEM,0.125 µg/mL
same,MIC ATB combined with compound,[6]; ATB PIP,1 µg/mL
same,MIC,"[6]; Staphylococcus aureus, substance alone, SAU 29213 (MSSA 29213), read-out: MIC",> 32 µg/mL
same,MIC ATB combined with compound,[7]; ATB ATM,16 µg/mL
same,MIC ATB combined with compound,[7]; ATB FEP,8 µg/mL
same,MIC ATB combined with compound,[7]; ATB FOS,4 µg/mL
same,MIC ATB combined with compound,[7]; ATB MEM,1 µg/mL
same,MIC ATB combined with compound,[7]; ATB PIP,>32 µg/mL
same,MIC,[7]; [13],> 128 µg/mL
same,MIC ATB combined with compound,[8]; ATB ATM,8 µg/mL
same,MIC ATB combined with compound,[8]; ATB FEP,32 µg/mL
same,MIC ATB combined with compound,[8]; ATB FOS,16 µg/mL
same,MIC ATB combined with compound,[8]; ATB MEM,4 µg/mL
same,MIC ATB combined with compound,[8]; ATB PIP,128 µg/mL
same,MIC,[8]; [13],64 µg/mL
same,MIC ATB combined with compound,[9]; ATB ATM,8 µg/mL
same,MIC ATB combined with compound,[9]; ATB FEP,4 µg/mL
same,MIC ATB combined with compound,[9]; ATB FOS,>128 µg/mL
same,MIC ATB combined with compound,[9]; ATB MEM,2 µg/mL
same,MIC ATB combined with compound,[9]; ATB PIP,>32 µg/mL
same,MIC,[9]; [13],> 32 µg/mL
same,MIC ATB combined with compound,[10]; ATB ATM,>32 µg/mL
same,MIC ATB combined with compound,[10]; ATB FEP,0.063 µg/mL
same,MIC ATB combined with compound,[10]; ATB FOS,16 µg/mL
same,MIC ATB combined with compound,[10]; ATB MEM,0.063 µg/mL
same,MIC ATB combined with compound,[10]; ATB PIP,0.5 µg/mL
same,MIC,"[10]; Streptococcus pneumoniae, substance alone, read-out: MIC",> 32 µg/mL
same,MIC,[11],> 32 µg/mL
same,MIC,[12],> 32 µg/mL
